PMC10892019, “Molecular Characterization of Plant Volatile Compound Interactions with Cnaphalocrocis medinalis Odorant-Binding Proteins” (Plants, 2024)
Where two headings read alike, the source gives them in different places. Each block holds one compound with its values, some of them ahead of it.

Assays:
[1] = target: CmedGOBP1 (Cnaphalocrocis medinalis, UniProt H9XFD0); assay: Fluorescence competitive binding assay (1-NPN) with CmedGOBP1
Experimental: (§1) The method for fluorescence competition binding was the same as that described by Zeng et al. (2018). The fluorescent probe N-phenyl-1-naphthylamine (1-NPN) (Sangon Biotech, Shanghai, China) and phenylacetaldehyde, benzyl acetate, 1-heptanol, and hexanal (Aladdin, Shanghai, China) were diluted to 100 mM stocks in chromatographic-grade methanol and stored at −20 °C. Working solutions of 1 mM 1-NPN and each odorant were made up in methanol. Each CmedOBP solution was diluted in 1 mM Tris-HCl buffer to a final concentration of 2 μM.
(§2) The RF5301PC fluorescence spectrophotometer (Shimadzu, Japan) was operated at an excitation wavelength of 337 nm and an emission wavelength of 405 nm (with excitation and emission slits of 5 nm and 10 nm, respectively). For each protein solution, 2 mL of diluted protein was added to the quartz cuvette, then 4 μL aliquots of 1-NPN solution were added at 2 min intervals to bring the final concentration of the probe to 2 μM. After the fluorescence intensity was stable, the maximum fluorescence value was recorded. The 1 mM volatile samples dissolved in methanol were then added to a final concentration of 20 μM. After 2 min, when the fluorescence value no longer fluctuated, the maximum fluorescence value was recorded. Each odor sample was tested in three technical replicates.
(§3) The binding ability of each protein to each odorant was determined by plotting the fluorescence intensity against the ligand concentration. Trend lines were linearized with the Scatchard method, then used to calculate the half-maximal inhibition concentration (IC50) of the ligand. The competition constant was calculated from the IC50 value as follows: Ki = [IC50]/(1 + [1-NPN]/K1-NPN) where 1-NPN is the concentration of free 1-NPN, and K1-NPN is the dissociation constant of the CmedOBP/[1-NPN] complex. The dissociation constant (Ki) was inversely correlated with the binding force between the protein and the odorant. At Ki > 50 μmol/L, the protein was considered to have no binding force with the volatile; at 20 μmol/L < Ki < 50 μmol/L, the protein was considered to have a weak binding force with the volatile; and at 0 μmol/L < Ki < 20 μmol/L, the protein was considered to have a strong binding force with the analyzed volatile.

[2] = target: CmedGOBP2 (Cnaphalocrocis medinalis, UniProt H9XFD1); assay: Fluorescence competitive binding assay (1-NPN) with CmedGOBP2
Sequence of CmedGOBP2 (H9XFD1 entry or part of it): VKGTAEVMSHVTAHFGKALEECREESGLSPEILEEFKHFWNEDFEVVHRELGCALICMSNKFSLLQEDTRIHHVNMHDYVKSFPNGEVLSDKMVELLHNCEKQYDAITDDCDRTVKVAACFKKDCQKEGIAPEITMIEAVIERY
Experimental: as §1, §2, §3

[3] = target: CmedOBP1 (Cnaphalocrocis medinalis, UniProt H9XFD2); assay: Fluorescence competitive binding assay (1-NPN) with CmedOBP1
Sequence of CmedOBP1 (H9XFD2 entry or part of it): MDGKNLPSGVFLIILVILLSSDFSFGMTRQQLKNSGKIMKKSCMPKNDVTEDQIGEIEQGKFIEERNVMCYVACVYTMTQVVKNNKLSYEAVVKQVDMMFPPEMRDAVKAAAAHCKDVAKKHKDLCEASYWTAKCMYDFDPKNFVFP
Experimental: as §1, §2, §3

[4] = target: CmedOBP15 (Cnaphalocrocis medinalis, UniProt A0A0U3C6L3); assay: Fluorescence competitive binding assay (1-NPN) with CmedOBP15
Sequence of CmedOBP15 (A0A0U3C6L3 entry or part of it): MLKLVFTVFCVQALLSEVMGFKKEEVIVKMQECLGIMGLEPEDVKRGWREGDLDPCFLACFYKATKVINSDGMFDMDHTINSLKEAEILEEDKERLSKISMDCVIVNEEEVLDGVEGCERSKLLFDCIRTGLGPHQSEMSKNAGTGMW
Experimental: as §1, §2, §3

[5] = target: CmedOBP26 (Cnaphalocrocis medinalis, UniProt A0A1P8SKA7); assay: Fluorescence competitive binding assay (1-NPN) with CmedOBP26
Sequence of CmedOBP26 (A0A1P8SKA7 entry or part of it): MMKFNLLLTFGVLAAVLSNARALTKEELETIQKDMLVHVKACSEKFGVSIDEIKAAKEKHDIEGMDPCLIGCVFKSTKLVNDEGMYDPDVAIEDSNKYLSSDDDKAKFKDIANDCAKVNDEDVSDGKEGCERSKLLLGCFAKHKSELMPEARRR
Experimental: as §1, §2, §3

[6] = target: CmedOBP6 (Cnaphalocrocis medinalis, UniProt A0A0U3C2E7); assay: Fluorescence competitive binding assay (1-NPN) with CmedOBP6
Sequence of CmedOBP6 (A0A0U3C2E7 entry or part of it): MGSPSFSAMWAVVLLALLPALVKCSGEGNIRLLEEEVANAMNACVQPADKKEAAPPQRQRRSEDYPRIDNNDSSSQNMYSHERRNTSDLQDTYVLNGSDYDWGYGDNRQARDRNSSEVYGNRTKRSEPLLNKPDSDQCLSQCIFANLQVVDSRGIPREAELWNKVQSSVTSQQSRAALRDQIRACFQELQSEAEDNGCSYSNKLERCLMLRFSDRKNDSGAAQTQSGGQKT
Experimental: as §1, §2, §3

[7] = target: CmedPBP2 (Cnaphalocrocis medinalis, UniProt M4YHW5); assay: Fluorescence competitive binding assay (1-NPN) with CmedPBP2
Sequence of CmedPBP2 (M4YHW5 entry or part of it): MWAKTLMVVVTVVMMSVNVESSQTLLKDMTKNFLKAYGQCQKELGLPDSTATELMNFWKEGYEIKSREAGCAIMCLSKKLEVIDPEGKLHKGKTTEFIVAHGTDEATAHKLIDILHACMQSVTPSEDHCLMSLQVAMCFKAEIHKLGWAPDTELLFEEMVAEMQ
Experimental: as §1, §2, §3

[8] = target: SaveOBP9; set-up: method as in PMID 33172024; conditions: SaveOBP9, strong binding force; cited from earlier work
[9] = CmedGOBP1 2 μM, 1-NPN probe 2 μM, calculated from IC50, read-out: Ki
[10] = CmedGOBP1 2 μM, 1-NPN probe 2 μM, read-out: IC50
[11] = CmedGOBP2 2 μM, 1-NPN probe 2 μM, calculated from IC50, read-out: Ki
[12] = CmedGOBP2 2 μM, 1-NPN probe 2 μM, read-out: IC50
[13] = CmedOBP1 2 μM, 1-NPN probe 2 μM, calculated from IC50, read-out: Ki
[14] = CmedOBP1 2 μM, 1-NPN probe 2 μM, read-out: IC50
[15] = CmedOBP15 2 μM, 1-NPN probe 2 μM, calculated from IC50, read-out: Ki
[16] = CmedOBP15 2 μM, 1-NPN probe 2 μM, read-out: IC50
[17] = CmedOBP26 2 μM, 1-NPN probe 2 μM, calculated from IC50, read-out: Ki
[18] = CmedOBP26 2 μM, 1-NPN probe 2 μM, read-out: IC50
[19] = CmedOBP6 2 μM, 1-NPN probe 2 μM, calculated from IC50, read-out: Ki
[20] = CmedOBP6 2 μM, 1-NPN probe 2 μM, read-out: IC50
[21] = CmedPBP2 2 μM, 1-NPN probe 2 μM, calculated from IC50, read-out: Ki
[22] = CmedPBP2 2 μM, 1-NPN probe 2 μM, read-out: IC50
[23] = Ki, CmedOBP1 2 μM, 1-NPN probe 2 μM, calculated from IC50
[24] = Ki, CmedOBP15 2 μM, 1-NPN probe 2 μM, calculated from IC50

Sequence of CmedGOBP1 (H9XFD0 entry or part of it): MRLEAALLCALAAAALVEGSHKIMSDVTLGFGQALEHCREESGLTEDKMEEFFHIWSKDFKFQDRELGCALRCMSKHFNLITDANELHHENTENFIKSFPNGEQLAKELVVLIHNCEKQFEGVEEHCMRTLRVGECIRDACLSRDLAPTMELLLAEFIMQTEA

Ki [1, 9]: > 50 µM
IC50 [1, 10]: 219 µM
Ki [2, 11]: > 50 µM
IC50 [2, 12]: 99.7 µM
Ki [3, 13]: 12 µM
IC50 [3, 14]: 68.1 µM
Ki ([3]; CmedOBP1, read-out: Ki value): < 20 µM
Ki [4, 15]: > 50 µM
IC50 [4, 16]: 290 µM
Ki [5, 17]: 31.9 µM
IC50 [5, 18]: 52.3 µM
Ki ([5]; CmedOBP26, read-out: Ki value): 20 to 50 µM
Ki [6, 19]: > 50 µM
IC50 [6, 20]: 624 µM
Ki [7, 21]: > 50 µM
IC50 [7, 22]: 224 µM
SMILES: CCCCCCCO [1-Heptanol, 1-heptanol]

Ki [1, 9]: > 50 µM
IC50 [1, 10]: 223 µM
Ki [2, 11]: > 50 µM
IC50 [2, 12]: 454 µM
Ki [3, 13]: 31.5 µM
IC50 [3, 14]: 179 µM
Ki [4, 15]: 13.6 µM
IC50 [4, 16]: 34.4 µM
Ki ([4]; CmedOBP15, read-out: Ki value): < 20 µM
Ki [5, 17]: > 50 µM
IC50 [5, 18]: 96.1 µM
Ki [6, 19]: > 50 µM
IC50 [6, 20]: 558 µM
Ki [7, 21]: > 50 µM
IC50 [7, 22]: 235 µM
SMILES: CC(=O)OCc1ccccc1 [Benzyl Acetate, benzyl acetate]

SMILES: CCCCCC=O [Hexanal, hexanal]
IC50 [1]: 249 µM
Ki [1]: > 50 µM
IC50 [2]: 622 µM
Ki [2]: > 50 µM
IC50 [3]: 99.2 µM
Ki ([3]; Ki value, CmedOBP1): < 20 µM
Ki [3, 23]: 17.5 µM
IC50 [4]: 441 µM
Ki [4, 24]: > 50 µM
IC50 [5]: 200 µM
Ki [5]: > 50 µM
IC50 [6]: 383 µM
Ki [6]: > 50 µM
IC50 [7]: 155 µM
Ki [7]: > 50 µM

SMILES: O=CCc1ccccc1 [Phenylacetaldehyde, phenylacetaldehyde]
IC50 [1]: 162 µM
Ki [1]: > 50 µM
IC50 [2]: 123 µM
Ki [2]: > 50 µM
IC50 [3]: 77.5 µM
Ki ([3]; Ki value, CmedOBP1): < 20 µM
Ki [3, 23]: 13.7 µM
IC50 [4]: 44.3 µM
Ki ([4]; Ki value, CmedOBP15): < 20 µM
Ki [4, 24]: 17.5 µM
IC50 [5]: 458 µM
Ki [5]: > 50 µM
IC50 [6]: 357 µM
Ki [6]: > 50 µM
IC50 [7]: 85.8 µM
Ki [7]: > 50 µM

SMILES: CCCCCCCCCC=O [decanal]
Ki [8]: < 10 µM

SMILES: CCCCCCCCCCCCCCCC [hexadecane]
Ki [8]: < 10 µM

SMILES: CCCCCCCC=O [octanal]
Ki [8]: < 10 µM

SMILES: CCCCCCCCCCCCCC [tetradecane]
Ki [8]: < 10 µM
